Reference: patent US20080182822A1, “Liquid Pharmaceutical Compositions Comprising a Bisphosphonate Compound” (Besins Healthcare SA, priority 2006, published 2008)
Values joined by “and” are separate entries in the source; they are usually repeats but may differ in a detail not shown here. Identical values can stand only once. Like-named read-outs stand apart in the source and are kept apart here.

Settings: rat; for Feces Excretion, Amount Excreted (% of Dose), 8 hours: collection 0-8 hours; for Feces Excretion, Amount Excreted (% of Dose), 120 hours / Urinary Excretion, Amount Excreted (% of Dose), 120 hours: collection 96-120 hours; for Feces Excretion, Amount Excreted (% of Dose), 144 hours / Urinary Excretion, Amount Excreted (% of Dose), 144 hours: collection 120-144 hours; for Feces Excretion, Amount Excreted (% of Dose), 168 hours / Urinary Excretion, Amount Excreted (% of Dose), 168 hours: collection 144-168 hours
[1] = intravenous 0.2 mg/kg (Group 1), Mean
[2] = intravenous 0.2 mg/kg (Group 1), individual animals, 0.2 mg/kg
[3] = intravenous 0.2 mg/kg (Group 1), collection 24-48 hours, individual animals, 0.2 mg/kg
[4] = intravenous 0.2 mg/kg (Group 1), collection 48-72 hours, Mean
[5] = intravenous 0.2 mg/kg (Group 1), collection 48-72 hours, individual animals, 0.2 mg/kg
[6] = intravenous 0.2 mg/kg (Group 1), collection 72-96 hours, Mean
[7] = intravenous 0.2 mg/kg (Group 1), collection 72-96 hours, individual animals, 0.2 mg/kg
[8] = intravenous 0.2 mg/kg (Group 1), necropsy Day 4, Mean
[9] = intravenous 0.2 mg/kg (Group 1), necropsy Day 4, individual animals, 0.2 mg/kg
[10] = intravenous 0.2 mg/kg (Group 1), necropsy Day 8, Mean
[11] = intravenous 0.2 mg/kg (Group 1), necropsy Day 8, individual animals, 0.2 mg/kg

NCCCC(O)(P(=O)(O)O)P(=O)(O)O [14C-alendronate]
Recovery from Treated Skin, % of Dose (dermal (Group 2), necropsy Day 8, individual animals): 0.25% and 0.22% (2×) and 0.33% and 0.39% | Urinary Excretion, Total Excretion (% of Dose), 0-72 hours (in vivo): 1.16% of Dose | Feces Excretion, Amount Excreted (% of Dose), 72 hours (in vivo, iv, 0.2 mg/kg): 1.17% of Dose | Feces Excretion, Amount Excreted (% of Dose), 96 hours (in vivo, iv, 0.2 mg/kg): 1.17% of Dose | Urinary Excretion, Amount Excreted (% of Dose), 24 hours (in vivo, iv, 0.2 mg/kg): 1.19% of Dose and 1.28% of Dose and 1.37% of Dose and 1.27% of Dose and 1.06% of Dose | Urinary Excretion, Total Excretion (% of Dose), 0-72 hours (in vivo, iv, 0.2 mg/kg): 11.3% of Dose | Feces Excretion, Total Excretion (% of Dose), 0-72 hours [1]: 4.1% of Dose | Urinary Excretion, Total Excretion (% of Dose), 0-72 hours [1]: 7.3% of Dose | Feces Excretion, Amount Excreted (% of Dose), 8 hours [1]: 0.12% of Dose | Feces Excretion, Amount Excreted (% of Dose), 8 hours [2]: 0.01% of Dose and 0.02% of Dose and 0.00% of Dose (3×) and 0.67% of Dose | Urinary Excretion, Amount Excreted (% of Dose), 24 hours (intravenous 0.2 mg/kg (Group 1), collection 8-24 hours, Mean): 1.2% of Dose | Urinary Excretion, Amount Excreted (% of Dose), 24 hours (intravenous 0.2 mg/kg (Group 1), collection 8-24 hours, individual animals): 0.94% of Dose | Urinary Excretion, Amount Excreted (% of Dose), 48 hours (intravenous 0.2 mg/kg (Group 1), collection 24-48 hours, Mean): 0.8% of Dose | Feces Excretion, Amount Excreted (% of Dose), 48 hours [3]: 0.47% of Dose and 0.92% of Dose | Urinary Excretion, Amount Excreted (% of Dose), 48 hours [3]: 0.78% of Dose and 0.94% of Dose and 0.75% of Dose and 0.95% of Dose and 0.34% of Dose and 0.85% of Dose | Feces Excretion, Amount Excreted (% of Dose), 72 hours [4]: 0.57% of Dose | Urinary Excretion, Amount Excreted (% of Dose), 72 hours [4]: 0.4% of Dose | Feces Excretion, Amount Excreted (% of Dose), 72 hours [5]: 0.15% of Dose and 0.24% of Dose and 0.44% of Dose and 0.87% of Dose | Urinary Excretion, Amount Excreted (% of Dose), 72 hours [5]: 0.56% of Dose and 0.34% of Dose and 0.51% of Dose and 0.61% of Dose and 0.20% of Dose and 0.26% of Dose | Feces Excretion, Amount Excreted (% of Dose), 96 hours [6]: 0.55% of Dose | Urinary Excretion, Amount Excreted (% of Dose), 96 hours [6]: 0.5% of Dose | Feces Excretion, Amount Excreted (% of Dose), 96 hours [7]: 0.32% of Dose and 0.14% of Dose | Urinary Excretion, Amount Excreted (% of Dose), 96 hours [7]: 0.74% of Dose and 0.15% of Dose and 0.57% of Dose | Feces Excretion, Amount Excreted (% of Dose), 120 hours [1]: 0.41% of Dose | Urinary Excretion, Amount Excreted (% of Dose), 120 hours [1]: 0.3% of Dose | Feces Excretion, Amount Excreted (% of Dose), 120 hours [2]: 0.56% of Dose and 0.12% of Dose and 0.54% of Dose | Urinary Excretion, Amount Excreted (% of Dose), 120 hours [2]: 0.43% of Dose and 0.11% of Dose and 0.27% of Dose | Feces Excretion, Amount Excreted (% of Dose), 144 hours [1]: 0.34% of Dose | Urinary Excretion, Amount Excreted (% of Dose), 144 hours [1]: 0.3% of Dose | Feces Excretion, Amount Excreted (% of Dose), 144 hours [2]: 0.36% of Dose and 0.08% of Dose and 0.59% of Dose | Urinary Excretion, Amount Excreted (% of Dose), 144 hours [2]: 0.59% of Dose and 0.06% of Dose and 0.31% of Dose | Feces Excretion, Amount Excreted (% of Dose), 168 hours [1]: 0.04% of Dose | Urinary Excretion, Amount Excreted (% of Dose), 168 hours [1]: 0.2% of Dose | Feces Excretion, Amount Excreted (% of Dose), 168 hours [2]: 0.06% of Dose and 0.02% of Dose and 0.05% of Dose | Urinary Excretion, Amount Excreted (% of Dose), 168 hours [2]: 0.33% of Dose and 0.18% of Dose and 0.16% of Dose | Feces Excretion, Total Excretion (% of Dose), 0-72 hours [2]: 3.1% of Dose and 8.6% of Dose and 2.4% of Dose and 3.2% of Dose and 2.3% of Dose and 5.0% of Dose | Feces Excretion, Total Excretion (% of Dose), 0-168 hours [2]: 5.6% of Dose and 3.1% of Dose and 8.2% of Dose | Urinary Excretion, Total Excretion (% of Dose), 0-72 hours [2]: 8.0% of Dose and 7.6% of Dose and 7.8% of Dose and 3.9% of Dose and 5.2% of Dose | Concentration in bone, Femur [8]: 0.500 μg 14C-alendronate/g bone | Concentration in bone, Tibia [8]: 0.492 μg 14C-alendronate/g bone | Concentration in bone, Femur [9]: 0.525 μg 14C-alendronate/g bone and 0.408 μg 14C-alendronate/g bone and 0.568 μg 14C-alendronate/g bone | Concentration in bone, Tibia [9]: 0.551 μg 14C-alendronate/g bone and 0.547 μg 14C-alendronate/g bone and 0.379 μg 14C-alendronate/g bone | Concentration in bone, Femur [10]: 0.679 μg 14C-alendronate/g bone | Concentration in bone, Tibia [10]: 0.586 μg 14C-alendronate/g bone | Concentration in bone, Femur [11]: 0.707 μg 14C-alendronate/g bone and 0.692 μg 14C-alendronate/g bone and 0.639 μg 14C-alendronate/g bone | Concentration in bone, Tibia [11]: 0.704 μg 14C-alendronate/g bone and 0.680 μg 14C-alendronate/g bone and 0.374 μg 14C-alendronate/g bone
